Data reported in paper PMC4405350, “From Broad-Spectrum Biocides to Quorum Sensing Disruptors and Mussel Repellents: Antifouling Profile of Alkyl Triphenylphosphonium Salts” (PLoS ONE, 2015).
pIC50: −log10 of the molar value. Like-named read-outs stand apart in the source and are kept apart here.

Tests used:
[1] = tested on: Cellulophaga lytica CECT 5014; assay: Marine bacteria growth inhibition (broth microdilution, OD625); type: cell-based; settings: Cellulophaga lytica, read-out: IC50 C. lytica
Protocol: (§1) All the biological assays were run by triplicate. […] For the active products, serial dilutions were performed to calculate the half-maximal inhibitory concentrations (IC50) or the minimal inhibitory concentrations (MIC). Unless otherwise stated, the test concentrations were 100, 50, 25, 10, 5, 2.5, 1, 0.5 and 0.1 μM. Dose-response curves were adjusted with GraphPad Prism 5 software using a four-parameter non-linear regression model.
(§2) Growth inhibition was assessed in Marine Broth (Conda) according to CLSI guidelines for broth microdilution susceptibility testing. The incubation time was 24 h and the incubation temperature was 30 °C.

Cobetia marina CECT 4278 = assay: as above; type: cell-based; settings: Cobetia marina, read-out: IC50 C. marina
Protocol: as §1, §2

[2] = tested on: Pseudoalteromonas atlantica CECT 579; assay: as above; type: cell-based; settings: Pseudoalteromonas atlantica, read-out: IC50 P. atlantica
Protocol: as §1, §2

[3] = tested on: Shewanella algae CECT 5021; assay: as above; type: cell-based; settings: Shewanella algae, read-out: IC50 S. algae
Protocol: as §1, §2

[4] = tested on: Vibrio alginolyticus CECT 521; assay: as above; type: cell-based; settings: Vibrio alginolyticus, read-out: IC50 V. alginolyticus
Protocol: as §1, §2

[5] = tested on: Vibrio anguillarum CECT 4347; assay: as above; type: cell-based; settings: Vibrio anguillarum, read-out: IC50 V. anguillarum
Protocol: as §1, §2

[6] = tested on: Gayralia oxysperma spores; assay: Macroalgal spore germination inhibition; type: cell-based; settings: 6 days, 19±1 °C
Protocol: as §1
To evaluate the effect of the phosphonium salts on the germination of macroalgal spores, Gayralia oxysperma (Kützing) K.L.Vinogradova was selected as model organism. G. oxysperma (Ulotrichales, Chlorophyta) is a cosmopolitan member of the Ulvophyceae. Unlike Ulva species, which produce biflagellate male and female gametes, as well as quadriflagellate spores, G. oxysperma only produces biflagellate spores. This is an advantage as bioassays can be conducted straightforwardly without the need to distinguish between gamete-producing and zoospore-producing plants. […] Fresh fertile fragments were selected and placed in Petri dishes. Spores were then released in Von Stosch Solution (VSS) by the osmotic method. Bioassays were conducted in flat-bottom 96-well plates as described by Chambers and co-workers, with slight modifications. Each well was filled with 50 μl of the appropriate dilution of the products in VSS to which 50 μl of spore inoculum (ca. 2 x 10^5 spores ml^-1) were added. Plates were incubated at 19±1 °C for 6 days. After the incubation time, the bottom of each well was examined for the presence of germinated spores with an inverted microscope. A spore was considered as germinated when the germ tube was visible. The MIC was recorded as the lowest concentration inhibiting spore germination.

Artemia salina nauplii = assay: in vivo; settings: instar I nauplii, 24 h, 28 °C
Protocol: as §1
Artemia salina cysts (INVE Aquaculture, Ghent, Belgium) were hatched in brackish water (30 ‰ salinity) at 28 °C with aeration and under constant light. Newly hatched instar I nauplii were harvested for bioassays. Tests were conducted in 96-well plates (15±5 nauplii per well, test volume = 200 μl). The number of dead and alive individuals was recorded after 24 h of incubation at 28 °C and 24-hour photoperiod.

C. violaceum CVO26 = C. violaceum CVO26 growth inhibition (OD625); type: cell-based; settings: Chromobacterium violaceum, CVO26, 18 h, read-out: IC50 (Growth inhibition)
Protocol: The reporter strain C. violaceum CVO26 (CECT 5999) was used to screen the ability of the products to interfere with violacein production, a QS-regulated phenotype. C. violaceum CVO26 is a mini-Tn5 mutant that depends on an exogenous source of autoinducer (AI) (N-hexanoyl homoserine lactone, HHL) for violacein production. C. violaceum CVO26 was cultured in LB broth (Sigma-Aldrich) supplemented with 25 μg ml^-1 kanamycin. Inocula were prepared by dilution (1:100) of an overnight culture of the reporter strain [49]. One hundred microliters of inoculum with HHL (Sigma-Aldrich, 6 μM) or without the AI were added to 96-well plates containing 100 μl of the appropriate dilutions of the test products in LB. Thus, two sets of plates were prepared. One set of plates (without HHL) was used to evaluate the effect of the products on bacterial growth, whereas the other set of plates (with HHL) was used to evaluate their effect on violacein production. Both sets of plates were incubated at 30 °C with agitation (150 rpm) for 18 h.
Growth inhibition was quantified in the first batch of plates by re-suspending bacterial pellets and measuring the OD625. From the second batch of plates violacein was extracted and quantified. Briefly, the plates were dried overnight (60 °C) and violacein was re-solubilized by the addition of 200 μl of DMSO. The plates were shaken for 3 h and then the OD590 was determined.
Indeed, the inhibitions observed in violacein production for long alkyl chains (10–18, 20) were clearly correlated to the biocidal effect exerted by these compounds, with ‘therapeutic ratios’ (IC50 for growth inhibition/IC50 for violacein inhibition) around 1, in general (Table 2). Note that, as the length of the hydrocarbon chain becomes shorter, this ratio increased (8–9). […] To evaluate these compounds in further detail, […] stock solutions were prepared […] to avoid the use of high concentrations of DMSO in the bioassays. […] Serial two-fold dilutions (500–3.9 μM) were assayed. Consequently, the highest amount of DMSO used in the assay was 0.25% (v/v). […] Growth inhibitory effects are only observed at 500 μM, particularly for compound 7 (Fig 6D).

[7] = CECT5014, growth inhibition, 24 h, 30 °C, three replicates
[8] = CECT4278, growth inhibition, 24 h, 30 °C, three replicates
[9] = CECT579, growth inhibition, 24 h, 30 °C, three replicates
[10] = CECT5021, growth inhibition, 24 h, 30 °C, three replicates
[11] = CECT521, growth inhibition, 24 h, 30 °C, three replicates
[12] = CECT4347, growth inhibition, 24 h, 30 °C, three replicates

| SMILES | pIC50 [1, 7] | pIC50 (Cobetia marina CECT 4278; [8]) | pIC50 [2, 9] | pIC50 [3, 10] | pIC50 [4, 11] | pIC50 [5, 12] | MIC G. oxysperma (lowest concentration inhibiting spore germination) [6] | IC50 A. salina (LC50) (Artemia salina nauplii) | pIC50 (C. violaceum CVO26) | pIC50 ([1]; CECT5014, 24 h) | pIC50 (Cobetia marina CECT 4278; CECT4278, 24 h) | pIC50 ([2]; CECT579, 24 h) | pIC50 ([3]; CECT5021, 24 h) | pIC50 ([4]; CECT521, 24 h) | pIC50 ([5]; CECT4347, 24 h) |
| --- | --- | --- | --- | --- | --- | --- | --- | --- | --- | --- | --- | --- | --- | --- | --- |
| CCCCCCCCCCCCCCCC[P+](c1ccccc1)(c1ccccc1)c1ccccc1 [Compound 16] | 5.82 | 5.00 | 5.17 | 5.27 | 4.77 | 5.28 | 50 µM | 1.8 µM | 5.49 | – | – | – | – | – | – |
| C/C=C/C[P+](c1ccccc1)(c1ccccc1)c1ccccc1 [Compound 3] | 4.14 | < 4.00 | 5.02 | < 4.00 | < 4.00 | < 4.00 | >100 µM | >100 µM | < 3.30 | – | – | – | – | – | – |
| O=S(=O)([O-])CCCC[P+](c1ccccc1)(c1ccccc1)c1ccccc1 [Compound 6] | < 4.00 | < 4.00 | < 4.00 | < 4.00 | < 4.00 | < 4.00 | >100 µM | >100 µM | < 4.00 | – | – | – | – | – | – |
| CCCCCCCCC[P+](c1ccccc1)(c1ccccc1)c1ccccc1 [Compound 9] | 5.59 | 4.68 | 5.18 | 5.07 | 4.16 | 4.06 | 50 µM | 2.0 µM | 4.80 | – | – | – | – | – | – |
| CCCCCCCCCCCCCCCCCCC[P+](c1ccccc1)(c1ccccc1)c1ccccc1 [Compound 18] | 5.28 | < 4.00 | < 4.00 | < 4.00 | < 4.00 | < 4.00 | >100 µM | <0.5 µM | 4.40 | – | – | – | – | – | – |
| CCCCCCCCCCCCCCCCCC[P+](c1ccccc1)(c1ccccc1)c1ccccc1 [Compound 17] | 4.95 | < 4.00 | 4.34 | 4.14 | < 4.00 | 4.50 | >100 µM | <0.5 µM | 5.15 | – | – | – | – | – | – |
| CCCCCCCCCCCCCC[P+](c1ccccc1)(c1ccccc1)c1ccccc1 [Compound 14] | 5.70 | 5.28 | 5.64 | 5.92 | 4.90 | 5.80 | 50 µM | 1.8 µM | 5.64 | – | – | – | – | – | – |
| O=C(O)CCCCCCCCCC[P+](c1ccccc1)(c1ccccc1)c1ccccc1 [Compound 19] | < 4.00 | < 4.00 | < 4.00 | < 4.00 | < 4.00 | < 4.00 | >100 µM | – | < 4.00 | – | – | – | – | – | – |
| CCCCCCCCCCCCCCC[P+](c1ccccc1)(c1ccccc1)c1ccccc1 [Compound 15] | 5.72 | 5.26 | 5.54 | 5.42 | 5.25 | 5.57 | 50 µM | 2.8 µM | 5.59 | – | – | – | – | – | – |
| CCCCC[P+](c1ccccc1)(c1ccccc1)c1ccccc1 [Compound 7] | < 4.00 | < 4.00 | < 4.00 | < 4.00 | < 4.00 | < 4.00 | >100 µM | >100 µM | < 3.30 | – | – | – | – | – | – |
| BrCCCC[P+](c1ccccc1)(c1ccccc1)c1ccccc1 [Compound 4] | < 4.00 | < 4.00 | 4.58 | < 4.00 | < 4.00 | < 4.00 | >100 µM | 92.7 µM | < 3.30 | – | – | – | – | – | – |
| COC(=O)CCC[P+](c1ccccc1)(c1ccccc1)c1ccccc1 [Compound 2] | < 4.00 | < 4.00 | < 4.00 | < 4.00 | < 4.00 | < 4.00 | >100 µM | >100 µM | < 4.00 | – | – | – | – | – | – |
| CCCCCCCCCCCCC[P+](c1ccccc1)(c1ccccc1)c1ccccc1 [Compound 13] | 5.77 | 5.30 | 5.92 | 5.44 | 4.95 | 5.24 | 50 µM | 0.9 µM | 5.49 | – | – | – | – | – | – |
| CCCCCCCCCCCC[P+](c1ccccc1)(c1ccccc1)c1ccccc1 [Compound 12] | – | – | – | – | – | – | 50 µM | 2.4 µM | 4.99 | 5.77 | 5.29 | 5.96 | 5.52 | 4.58 | 4.56 |
| CCCCCCC[P+](c1ccccc1)(c1ccccc1)c1ccccc1 [Compound 8, heptyl triphenylphosphonium bromide] | 4.70 | < 4.00 | 4.54 | < 4.00 | < 4.00 | < 4.00 | 100 µM | 20.4 µM | 4.28 | – | – | – | – | – | – |
| CCCCN[P+](c1ccccc1)(c1ccccc1)c1ccccc1 [Compound 5] | 4.38 | < 4.00 | < 4.00 | < 4.00 | < 4.00 | < 4.00 | 100 µM | 17.2 µM | < 3.30 | – | – | – | – | – | – |
| CCCCCCCCCC[P+](c1ccccc1)(c1ccccc1)c1ccccc1 [Compound 10] | 5.59 | 5.10 | 5.28 | 4.98 | 4.45 | 4.74 | 50 µM | 1.4 µM | 4.92 | – | – | – | – | – | – |
